Laboratory results: patent publication US10844102B2, “Peptides, compositions, and methods for stimulating subcutaneous adipogenesis” (The Regents of the University of California, priority 2014, dated 2020)
Where two headings read alike, the source gives them in different places.

What was measured:
nude guinea pig = experiment: Nude guinea pig model of adipogenesis; details: in vivo
dermis of aged rats = experiment: Rat dermal skin model of adipogenesis (injection into the dermis of aged rats); type: in vivo; details: for adipogenic effects in rat skin: injected into the dermis of aged rats / rat skin
adipogenesis [1] = details: earlier reports, WO 2014/082042 and background; cited from earlier work
[2] = system: bone marrow mesenchymal stem cells; experiment: Adipogenesis in mesenchymal stem cells or papillary fibroblasts, replacement of insulin; type: cell-based; details: depending upon the screening assay used
Method: For example, in bone marrow mesenchymal stem cells, a maximum adipogenic effect was obtained at 1-5 μg of peptide B (SEQ ID NO: 2), depending upon the screening assay used.

[3] = system: mammary fat pads of aged female rats; experiment: In vivo adipogenesis in mammary fat pads of aged female rats (microCT); design: species or system rat; details: eight-month-old female rats, 100 μg peptide in 100 μl collagen gel, 7 days, versus collagen only
Method: Peptides were also tested for their ability to stimulate adipogenesis in mammary fat pads of aged (8 month old) female rats in vivo. Mammary fat pads are rich in adipocyte progenitor cells.
Eight-month-old female Sprague Dawley rats (retired breeders) were injected with 100 μl collagen gel (Vitrogen) containing 100 μg peptide into the fourth right mammary fat pad, as depicted in FIG. 10. […] The collagen and peptides were injected at the top of the ROI nearest the nipple. The collagen and peptide diffuse into the fat pad following injection and active peptides target RHAMM-positive progenitor cells present in the fat pad. Collagen alone was injected into the fourth left mammary fat pad as a negative control.
Following injection of the collagen and peptide or collagen alone, animals were maintained on rat chow and water for 7 days and then euthanized. Micro-computed tomography (microCT) imaging of the […] was performed on animals using a Locus Ultra scanner (GE Healthcare, London, ON, Canada). The animals were imaged ex vivo with an X-ray tube voltage of 80 kV and a tube current of 55 mA. Nine hundred projections of data were acquired at an angular increment of 0.4 degrees around the rat in an exposure time of 16 ms. The data were then reconstructed into a 3D volume image with a voxel size of 154 μm. The subcutaneous mammary fat measured in 10×5×3 mm rectangular area (the region of interest (ROI)) below the nipple, avoiding measurement of underlying visceral fat (see the region labeled “fat pad” in FIG. 11). The amount of fat in the ROI was calculated as mass (mg) per ROI.

adipogenesis [4] = experiment: Adipogenic activity of peptides and peptide fragments, assay not specified; type: cell-based
Method: In the second approach, a series of truncations and alanine mutagenesis on peptide B were performed in order to identify the smallest active sequence. Fragments of peptide B were prepared and assayed for adipogenesis. First, fragments corresponding to the two halves of peptide B were prepared (KLKDENS (SEQ ID NO: 8) and SQLKSEVSK (SEQ ID NO: 13)).

pre-adipocyte stem cells = experiment: Adipogenic effects in pre-adipocyte stem cells in culture; type: cell-based
[5] = earlier reports, background and U.S. Pat. No. 6,271,344; cited from earlier work
adipogenesis in vivo = experiment: Adipogenesis in vivo, model not specified
[6] = Hyaluronan binding (random phage library screen); details: unbiased screen of 15-mer random phage libraries
Method: Two approaches were used to identify additional adipogenic peptides and to identify the key adipogenic sequences. […] Thus, in the first approach, an unbiased screen was performed to identify hyaluronan-binding peptides using 15-mer random phage libraries. Peptide sequences identified in this screen were sorted for: (a) their alignment to the HA binding region of RHAMM, and (b) their lack of alignment to the HA binding region of CD44.

binding to hyaluronan (HA) [6] | Sequence | promoting adipogenesis in a nude guinea pig model (nude guinea pig) | fat accumulation (dermis of aged rats; 25-50 μg of peptide per injection site, rat dermal skin model) | adipogenic effects in rat skin (dermis of aged rats) | adipogenic activity (adipogenesis [1]) | amount of peptide giving a maximum adipogenic effect [2] [µg] | adipogenesis in vivo in mammary fat pads [3] | adipogenic activity (adipogenesis [4]; assay not specified) | adipogenic effects in pre-adipocyte stem cells in culture (pre-adipocyte stem cells) | binding to hyaluronan (HA) [5] | adipogenesis in vivo (adipogenesis in vivo) | adipogenesis in tissue culture (adipogenesis [4]; tissue culture)
– | KLKDENSQLKSEVSK (listed as Homo sapiens) [peptide B] | effective in promoting adipogenesis | induced significant fat accumulation | adipogenic effects | strongly adipogenic | 1 to 5 | mammary fat pad enlargement | adipogenic activity | adipogenic effects | – | – | –
hyaluronan binding peptide | STMMSRSHKTRSHHV [peptide P15-1] | – | – | adipogenic effects | is adipogenic | – | – | – | adipogenic effects | bind to hyaluronan | promotes adipogenesis | promotes adipogenesis
